Measurements published in patent US20220213055A1, “SUBSTITUTED (PIPERIDIN-1-YL)ARYL ANALOGUES FOR MODULATING AVIL ACTIVITY” (University of Virginia Patent Foundation, priority 2019, published 2022).
Like-named read-outs stand apart in the source and are kept apart here.

What was measured:
Type in all cases: cell-based
[1] = target: T1, AVIL protein binding to actin (Homo sapiens, UniProt O75366); assay: Immunoprecipitation (MYC antibody) and Western blot (β-actin antibody) in 293T cells transfected with MYC tagged AVIL; conditions: IC50 dose, 24 hrs, FIGS. 2A and 2B
T1 construct: expressed in transfected cells; host or cells: 293T cells
T1 sequence (O75366 1-819): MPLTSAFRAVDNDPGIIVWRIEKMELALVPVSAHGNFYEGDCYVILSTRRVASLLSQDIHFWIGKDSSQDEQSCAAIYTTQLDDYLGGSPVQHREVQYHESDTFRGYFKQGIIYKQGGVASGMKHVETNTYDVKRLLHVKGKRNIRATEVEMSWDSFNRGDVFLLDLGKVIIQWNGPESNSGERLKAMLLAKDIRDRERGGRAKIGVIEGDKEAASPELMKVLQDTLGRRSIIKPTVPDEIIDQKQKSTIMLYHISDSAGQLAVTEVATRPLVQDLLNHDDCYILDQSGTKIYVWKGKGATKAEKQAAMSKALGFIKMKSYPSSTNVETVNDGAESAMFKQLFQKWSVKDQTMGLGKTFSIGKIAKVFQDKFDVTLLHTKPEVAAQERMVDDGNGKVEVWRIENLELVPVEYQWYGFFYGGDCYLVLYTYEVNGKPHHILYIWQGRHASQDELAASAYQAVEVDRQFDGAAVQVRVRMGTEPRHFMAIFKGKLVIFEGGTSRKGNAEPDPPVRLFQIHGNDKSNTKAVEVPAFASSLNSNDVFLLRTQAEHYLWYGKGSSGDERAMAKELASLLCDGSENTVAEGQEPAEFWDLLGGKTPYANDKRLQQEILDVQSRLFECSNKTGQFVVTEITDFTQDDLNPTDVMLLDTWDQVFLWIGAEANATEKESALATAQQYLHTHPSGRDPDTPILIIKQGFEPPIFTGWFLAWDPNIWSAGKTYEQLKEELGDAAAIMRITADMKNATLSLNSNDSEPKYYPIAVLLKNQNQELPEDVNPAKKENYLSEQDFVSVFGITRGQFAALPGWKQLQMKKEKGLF
Method: 293T cells were first transfected with MYC tagged AVIL. After 24 hrs, the cells were treated with the IC50 dose of the five compounds for 24 hrs. Immunoprecipitation was performed with MYC antibody, and Western blot was performed with β-actin antibody.
293T cells were first transfected with MYC tagged AVIL as follows: transfect pQCXIH-myc-AVIL plasmid in 6 well plate of 293T for 48 hrs. 200 ul opti-medium+7 ul GeneCellin (Polyplus transfection Co.)+4 ug plasmids in each well. Transfected AVIL cells were treated with the IC50 dose of the test compounds for 24 hrs. Protein extract was then prepared on ice by adding 1 ml IP lysis buffer+protease inhibitor+cocktail+PMSF, and let stand on ice for 30 min. Cells were then scraped into EP tubes and sonicated continuously for 5 sec with power setting 3. Tubes were then centrifuged in 4° C. at 13000 rpm for 20 min, and the upper aqueous phase was then transferred to pre-chilled tubes. Protein concentration was then determined using Bio-Rad protein assay. Preclear cell extracts were treated with 50 ul ProteinG/Sepharose per my lysate for 1 hr. Then 500 ug precleared cell extracts were taken and adjusted to 500 ul with lysis buffer for 2 ug myc antibody or IgG control and incubated at 4° C. overnight. Then, 25 ul ProteinG/Sepharose beads were added and incubated at 4° C. overnight. Beads were then washed four times with 1 ml IP wash buffer for 3 min, and spun at 1000 rpm to pellet beads. All wash buffer was removed with pipette, and 20 ul 2×SDS loading buffer was added and then boiled at 95° C. for 10 min to denature. This was centrifuged at 12000 rpm for 30 sec., and the supernatant was then transferred to a fresh tube and load for SDS-PAGE.
Western blot was performed with R-actin antibody. To measure protein levels, cell lysates were resolved by denaturing gel electrophoresis, before electrotransfer to a Protran nitrocellulose membrane. The membrane was subjected to western blot analysis with antibodies against the proteins of interest. The following antibodies and dilutions were used: rabbit anti-AVIL (1:2000; Sigma SAB2100191).

[2] = test system: LIN28B; assay: LIN28B gene expression by qRT-PCR in U87 cells; conditions: IC50 concentration, relative to GAPDH, FIG. 3
Method: U87 cells were treated at the IC50 concentration of the five test compounds. Cells were harvested. RNA was extracted using TRIzol reagent (Invitrogen) and quantified with Nanodrop (Thermo). cDNA was generated by AMV-RT kit (NEB), and a random hexamer primer. Real-time qPCR was carried out on the StepOne Plus system from Applied Biosystems using SYBR mix (Thermo). LIN28B expression was measured by qRT-PCR and is represented relative to GAPDH levels. […] The following primers were used for […] and GAPDH amplifications: […]

[3] = test system: Glioblastoma cell line U87 cells; assay: MTT cell viability assay, glioblastoma cells; conditions: for IC50: U87 glioblastoma cells, MTT after three days
Method: (§1) Different concentration of compounds were added to the cells. Three days later, a MTT assay (Sigma) was performed to monitor cell viability.
(§2) In this example, samples of glioblastoma cells (U87) and astrocyte cells (non-cancer control) were exposed various disclosed compounds to determine the effectiveness of the compounds for inhibiting cell growth.

[4] = test system: Immortalized human astrocytes; assay: MTT cell viability assay, astrocytes (non-cancer control); conditions: for IC50: immortalized human astrocytes, MTT after three days
Method: as §1, §2

[5] = Homo sapiens, U-87 MG, 72 h, value in nM

Question: `c1ccc(COCC2CCCN(c3ncnc4ccccc34)C2)cc1` (stereo not shown) [PLH2069, 4-(3-((Benzyloxy)methyl)piperidin-1-yl)quinazoline] was tested. Which “disruption of AVIL protein binding to actin” value (“disruption” below) [1] did it give?
Answer: The value was “disruption of AVIL protein binding to actin”.

Question: And the “down-regulation of LIN28B gene expression” value (“down-regulation” below) [2]?
Answer: Its value is “down-regulation of LIN28B gene expression”.

Question: `Cc1nc(N)nc(N2CCCC(CO)(CCCc3ccccc3)C2)c1C` (stereo not shown) [PLH1252, (1-(2-Amino-5,6-dimethylpyrimidin-4-yl)-3-(3-phenylpropyl)piperidin-3-yl)methanol] was tested. Which “concentration at which most if not all of the U87 cells were wiped out” value ([3]; FIG. 1 cell survival curves, U87) did it give?
Answer: Its value is “less than 1 μM”.

Question: What about the IC50 ([3]; Homo sapiens, U-87 MG, 72 h) of the same compound?
Answer: Its IC50 is roughly 1000 nM.

Question: What about the IC50 [3, 5] of the same compound?
Answer: Its IC50 is roughly 600 nM.

Question: And the effect on astrocytes ([4]; FIG. 1 cell survival curves, astrocytes, varied doses)?
Answer: The effect on astrocytes was “no significant effect”.

Question: What about the IC50 ([4]; Homo sapiens, Astrocyte, 72 h) of the same compound?
Answer: The IC50 was 45 µM.

Question: And the IC50 ([4]; read-out: IC50 (astrocyte))?
Answer: Its IC50 is roughly 80 µM.

Question: And the “disruption” value [1]?
Answer: The value was “disruption of AVIL protein binding to actin”.

Question: And the “down-regulation” value [2]?
Answer: The value was “down-regulation of LIN28B gene expression”.

Question: Which results are given for `Cc1ncnc(N2CCCC(CO)(CCCc3ccccc3)C2)c1C` (stereo not shown) [PLH2056, (1-(5,6-Dimethylpyrimidin-4-yl)-3-(3-phenylpropyl)piperidin-3-yl)methanol]?
Answer: IC50 ([3]; Homo sapiens, U-87 MG, 72 h): < 2500 nM; IC50 ([4]; Homo sapiens, Astrocyte, 72 h): ~80 µM; disruption of AVIL protein binding to actin [1]: disruption of AVIL protein binding to actin; down-regulation of LIN28B gene expression [2]: down-regulation of LIN28B gene expression

Question: For `OCC1(CCCc2ccccc2)CCCN(c2ncnc3ccccc23)C1` (stereo not shown) [PLH1295, (3-(3-Phenylpropyl)-1-(quinazolin-4-yl)piperidin-3-yl)methanol], which IC50 ([3]; Homo sapiens, U-87 MG, 72 h) is on record?
Answer: Its IC50 is less than 1000 nM.

Question: And the IC50 [3, 5]?
Answer: The IC50 was 500 nM.

Question: And the IC50 ([4]; Homo sapiens, Astrocyte, 72 h)?
Answer: The IC50 was 22 µM.

Question: What about the IC50 ([4]; read-out: IC50 (astrocyte)) of the same compound?
Answer: Its IC50 is 30 µM.

Question: And the “disruption” value [1]?
Answer: Its value is “disruption of AVIL protein binding to actin”.

Question: And the “down-regulation” value [2]?
Answer: Its value is “down-regulation of LIN28B gene expression”.

Question: With `COc1c(Cl)ncnc1N1CCCC(CO)(CCCc2ccccc2)C1` (stereo not shown) [PLH1302, (1-(6-Chloro-5-methoxypyrimidin-4-yl)-3-(3-phenylpropyl)piperidin-3-yl)methanol] as the compound, how does the IC50 ([3]; Homo sapiens, U-87 MG, 72 h) read?
Answer: The IC50 was roughly 2500 nM.

Question: What about the IC50 [3] of the same compound?
Answer: The IC50 was 2300 nM.

Question: And the IC50 ([4]; Homo sapiens, Astrocyte, 72 h)?
Answer: The IC50 was roughly 20 µM.

Question: What about the IC50 ([4]; read-out: IC50 (astrocyte)) of the same compound?
Answer: The IC50 was 10 µM.

Question: Which IC50 ([3]; Homo sapiens, U-87 MG, 72 h) does the source give for `Nc1nccc(N2CCCC(C(=O)NCc3ccccc3)C2)n1` (stereo not shown) [PLH1290, 1-(2-Aminopyrimidin-4-yl)-N-benzylpiperidine-3-carboxamide] here?
Answer: The IC50 was greater than 80000 nM.

Question: What about the IC50 ([4]; Homo sapiens, Astrocyte, 72 h) of the same compound?
Answer: Its IC50 is greater than 80 µM.

Question: `OCC1(CCCc2ccccc2)CCN(c2cc(C(F)(F)F)ncn2)CC1` [JDDUVA47, (4-(3-Phenylpropyl)-1-(6-(trifluoromethyl)pyrimidin-4-yl)piperidin-4-yl)methanol] was tested. Which IC50 ([3]; Homo sapiens, U-87 MG, 72 h) did it give?
Answer: The IC50 was 13000 nM.

Question: And the IC50 ([4]; Homo sapiens, Astrocyte, 72 h)?
Answer: Its IC50 is greater than 80 µM.

Question: Which results are given for `Nc1nccc(N2CCCC(CO)(CCc3ccccc3)C2)n1` (stereo not shown) [PLH1304, (1-(2-Aminopyrimidin-4-yl)-3-phenethylpiperidin-3-yl)methanol]?
Answer: IC50 ([3]; Homo sapiens, U-87 MG, 72 h): 3830 nM; IC50 ([4]; Homo sapiens, Astrocyte, 72 h): ~80 µM

Question: How did the IC50 ([3]; Homo sapiens, U-87 MG, 72 h) turn out when `COC(=O)C1CCCN(C(=O)OC(C)(C)C)C1` (stereo not shown) [PLH1190] was run?
Answer: Its IC50 is greater than 80000 nM.

Question: And the IC50 ([4]; Homo sapiens, Astrocyte, 72 h)?
Answer: The IC50 was greater than 80 µM.

Question: What does the source list for `Cc1nccnc1N1CCCC(CO)(CCCc2ccccc2)C1` (stereo not shown) [PLH1234, (1-(3-Methylpyrazin-2-yl)-3-(3-phenylpropyl)piperidin-3-yl)methanol]?
Answer: IC50 ([3]; Homo sapiens, U-87 MG, 72 h): 20000 nM; IC50 ([4]; Homo sapiens, Astrocyte, 72 h): 51.8 µM

Question: What does the source list for `Nc1nccc(N2CCCC(COCc3ccccc3)C2)n1` (stereo not shown) [PLH2027, 4-(3-((Benzyloxy)methyl)piperidin-1-yl)pyrimidin-2-amine]?
Answer: IC50 ([3]; Homo sapiens, U-87 MG, 72 h): ~50000 nM; IC50 ([4]; Homo sapiens, Astrocyte, 72 h): ~80 µM

Question: For `Nc1nccc(N2CCCC(CO)(CCCc3ccccc3)C2)n1` (stereo not shown) [JDDUVA28], which IC50 [3] is on record?
Answer: Its IC50 is roughly 12200 nM.

Question: And the IC50 ([4]; read-out: IC50 (astrocyte))?
Answer: Its IC50 is greater than 80 µM.

Question: What does the source list for `Nc1ccnc(N2CCC(CO)(CCCc3ccccc3)CC2)n1` [JDDUVA69, (1-(4-Aminopyrimidin-2-yl)-4-(3-phenylpropyl)piperidin-4-yl)methanol]?
Answer: IC50 ([3]; Homo sapiens, U-87 MG, 72 h): 13600 nM; IC50 ([4]; Homo sapiens, Astrocyte, 72 h): > 80 µM
